# According to patent US11406660B2, “Treatment of bone marrow edema (OEDEMA) with polysulfated polysaccharides” (PARADIGM HEALTH SCIENCES PTY LTD, priority 2011, dated 2022):
# How the values were obtained:
# [1] = system: subchondral BME in the femoral subchondral bone; assay: Case report Example 1: subject, knee injury with subchondral BME, course of PPS injections; type: in vivo, human; conditions: for BME on T1 weighted MRI: subject, one week after completing 10 x 100 mg/ml IM injections, FIG. 1B vs FIG. 1A
# Experimental: FIG. 1A is an MRI (T1 weighted scans) of subject […] showing the presence of bone marrow edema in the subchondral bone of the in left femoral condyle. Edema is evidenced by the reduced intensity of the signals in the semi-circular region beneath the articular cartilage. The MRI was taken 5 days following initial joint injury; and
# FIG. 1B is an MRI (T1 weighted scans) of subject […] taken one week after completing a course of 10×100 mg/ml IM injection of pentosan polysulfate. […] Magnification of MRI image shown is slightly higher than for FIG. 1A.
# A subject ([…]) in good general health while jogging on the footpath stumbled and fell laterally striking the pavement with their right knee. Next day the knee was swollen and extremely painful and when examined by a medical practitioner was diagnosed as avulsion of the collateral ligament attachment to tibial bone. […] Five days after sustaining the injury surgical repair was undertaken to re-attach the free ligament bone insertion to the tibia. However the knee pain persisted thereafter and was not relieved by use of analgesics or NSAIDs. Five weeks after the surgery a course of PPS, 100 mg/ml injections administered intramuscularly twice weekly for 5 weeks was initiated (total of 10 injections). After receiving the 6th injection, the pain and joint swelling had disappeared and one week after completion of the PPS course of injections the joint was again reviewed by T1 weighted MM.
# [2] = system: sub-chondral bone contusion (BME); assay: Case report Example 3: subject one, knee pain after sub-chondral bone contusion (BME), daily intramuscular PPS; type: in vivo, human; conditions: for knee pain: 100 mg intramuscular daily
# Experimental: For example, in one instance, the pain suffered by a patient was so debilitating that the patient received a total of 7 intramuscular injections (7×1 ml ampoules PPS [7×100 mg]) over a period of 7 day until the pain resolved. This equated to just over 1.0 mg/kg PPS daily.
# A healthy person one with genu varum of approximately 5 degrees slipped on a step at an airport terminal while rushing to catch an international flight such that their left foot made an unexpected high impact with the ground. After arriving at their destination late that evening, the person retired for the night but was woken in the early hours of the morning with intense throbbing pain originating from the medial compartment of their left knee joint.
# [3] = cited from earlier work
# OA = conditions: cited from earlier work
substance,measurement,setting,value
pentosan polysulfate [PPS],pain and joint swelling,"[1]; subject three, 100 mg/ml intramuscularly twice weekly for 5 weeks, after the 6th injection",disappeared
same,BME on T1 weighted MRI,[1],completely resolved
same,BME on T1 weighted MRI,[1]; listed as pentosan polysulfate,absence of bone marrow edema
same,pain,"[2]; a patient, 7 intramuscular injections (7 x 100 mg) over 7 days, just over 1.0 mg/kg daily",resolved
same,knee pain,"[2]; subject one, after the 7th injection",completely resolved
same,knee pain,"[2]; subject one, following the 5th injection",substantially subsided
same,recurrence of debilitating joint pain,"[2]; subject one, subsequent months following the PPS course of therapy",did not re-occur
same,anticoagulant activity compared with heparin,[3],weaker anticoagulant than heparin
same,symptoms in patients with OA,OA,symptomatic relief
